Results published in patent US20230139593A1, “TREATMENT OF DISORDERS ASSOCIATED WITH OXIDATIVE STRESS AND COMPOUNDS FOR SAME” (The University of Adelaide, priority 2020, published 2023).
Where a name gives a salt, the structure may show the parent alone.

Tests used:
[1] = system: spared nerve injury (SNI) model of neuropathic pain; assay: Tactile allodynia (von Frey test) after spared nerve injury; assay type: in vivo, mice; conditions: for tactile allodynia: 350 μmol/kg oral, daily for 3 days, SNI mice, ipsilateral paw
Description: Pathogen-free adult male and female C57BL/6J mice (8 weeks old on arrival; The Jackson Laboratory, Bar Harbor, USA) were used. Mice were housed five per cage in a light- and temperature-controlled room (12:12-h light-dark cycle, light on at 7:00 AM) with food and water available ad libitum. All procedures were approved by the MD Anderson Cancer Center Animal Care and Use Committee. SNI was performed under inhaled isoflurane anesthesia. The tibial and common peroneal nerves were isolated, tightly ligated with 6-0 silk, and transected immediately distal to the ligation. The sural nerve was left intact. Animals were monitored post-operatively until fully ambulatory prior to return to their home cage. Compounds were suspended with methylcellulose (viscosity 15 cP, 2% w/v in water;) and administered by oral gavage. For SNI anti-nociception, compounds were administered for 3 days (350 μmol/kg/day), beginning 7 days after SNI, and continuing for 3 (reflex tests) or 7 days (conditioned place preference tests). For leukopenia assessment, compounds were administered to naïve mice for 10 days (350 μmol/kg/day). Equivolume methylcellulose (2% w/v) was used as vehicle control for all compounds. An independent investigator dosed the mice in order to maintain blinding to treatment groups for the other investigators who performed the behavioral testing. Testing was conducted blind with respect to group assignment. […] Tactile allodynia was measured using the von Frey test. The 50% paw withdrawal threshold was determined using the “up-down” method. Differences between in vitro concentration-response relationships were determined by comparing the slopes of fitted functions for shared parameters. […] Mechanical allodynia was analyzed as the interpolated 50% thresholds (absolute threshold). […] Differences between treatment groups for behavior were determined using repeated measures two-way ANOVA, followed by Tukey's or […] post hoc tests. Biochemical data were analyzed by one- or two-way ANOVA, followed by Tukey's post hoc tests. Results are expressed as mean±standard deviation (SD). […]

[2] = system: spared nerve injury (SNI) model of neuropathic pain; assay: Dynamic allodynia (paintbrush stroking) after spared nerve injury; assay type: in vivo; conditions: 350 μmol/kg oral, daily for 3 days, SNI mice, ipsilateral paw
Description: Pathogen-free adult male and female C57BL/6J mice (8 weeks old on arrival; The Jackson Laboratory, Bar Harbor, USA) were used. Mice were housed five per cage in a light- and temperature-controlled room (12:12-h light-dark cycle, light on at 7:00 AM) with food and water available ad libitum. All procedures were approved by the MD Anderson Cancer Center Animal Care and Use Committee. SNI was performed under inhaled isoflurane anesthesia. The tibial and common peroneal nerves were isolated, tightly ligated with 6-0 silk, and transected immediately distal to the ligation. The sural nerve was left intact. Animals were monitored post-operatively until fully ambulatory prior to return to their home cage. […] Dynamic mechanical hypersensitivity was measured by light stroking (velocity is 2 cm/s) of the external lateral side of the injured hind paw in the direction from heel to toe with a paintbrush. The paw withdrawal response was scored according to the following criteria, score=0: walking away or occasionally very brief paw lifting […]; score=1: sustained lifting (>2 s) of the stimulated paw toward the body; score=2: a strong lateral lifting above the level of the body; score=3: flinching or licking of the affected paw. […] Differences between in vitro concentration-response relationships were determined by comparing the slopes of fitted functions for shared parameters. […]

[3] = system: spared nerve injury (SNI) model of neuropathic pain; assay: Conditioned place preference assay (spontaneous pain) after spared nerve injury; assay type: in vivo; conditions: 350 μmol/kg oral, daily for 7 days, nerve-injured mice
Description: Pathogen-free adult male and female C57BL/6J mice (8 weeks old on arrival; The Jackson Laboratory, Bar Harbor, USA) were used. Mice were housed five per cage in a light- and temperature-controlled room (12:12-h light-dark cycle, light on at 7:00 AM) with food and water available ad libitum. All procedures were approved by the MD Anderson Cancer Center Animal Care and Use Committee. SNI was performed under inhaled isoflurane anesthesia. The tibial and common peroneal nerves were isolated, tightly ligated with 6-0 silk, and transected immediately distal to the ligation. The sural nerve was left intact. Animals were monitored post-operatively until fully ambulatory prior to return to their home cage. Compounds were suspended with methylcellulose (viscosity 15 cP, 2% w/v in water;) and administered by oral gavage. For SNI anti-nociception, compounds were administered for 3 days (350 μmol/kg/day), beginning 7 days after SNI, and continuing for 3 (reflex tests) or 7 days (conditioned place preference tests). For leukopenia assessment, compounds were administered to naïve mice for 10 days (350 μmol/kg/day). Equivolume methylcellulose (2% w/v) was used as vehicle control for all compounds. An independent investigator dosed the mice in order to maintain blinding to treatment groups for the other investigators who performed the behavioral testing. […] The time spent in the light chamber was recorded. […]

[4] = system: NRF2/ARE luciferase reporter HEK293 cells; assay: Cytotoxicity in the reporter cell assay; assay type: cell-based
Description: (§1) NRF2/ARE responsive luciferase reporter HEK293 cells (Signosis, Santa Clara, USA) were seeded at 1×10^5 cells/well in 48-well plates (Corning, Tewksbury, USA) in supplemented Dulbecco's Modified Eagle Medium (DMEM) containing 4.5 g/L glucose (HyClone, Pittsburgh, USA) (10% fetal bovine serum (FBS) (ThermoFisher Scientific, Waltham, USA) and 1% penicillin/streptomycin (Gibco, Waltham, USA)) and cultured overnight at 37° C., 5% CO2, in a humidified environment. The next morning, the media was replaced with supplemented DMEM (1% FBS (ThermoFisher Scientific) and 1% penicillin/streptomycin (Gibco)). Cells were then treated with a concentration range of each example of compounds described in the invention or monomethyl fumarate (0-100 μM), together with 10 μM hydrogen peroxide (H2O2) (Sigma Aldrich, St Louis, USA), 10 μM peroxynitrite (PN) (Sigma Aldrich), or supplemented media (negative control). tert-Butylhydroquinone (tBHQ; 10 μM) (Sigma-Aldrich) was used as positive control. Each condition was run in triplicate and observations confirmed over at least two additional replications.

leukocytes = assay: Absolute leukocyte count in naive mice; assay type: in vivo; conditions: 350 μmol/kg oral, daily for 10 days
Description: Compounds were suspended with methylcellulose (viscosity 15 cP, 2% w/v in water;) and administered by oral gavage. For SNI anti-nociception, compounds were administered for 3 days (350 μmol/kg/day), beginning 7 days after SNI, and continuing for 3 (reflex tests) or 7 days (conditioned place preference tests). For leukopenia assessment, compounds were administered to naïve mice for 10 days (350 μmol/kg/day). Equivolume methylcellulose (2% w/v) was used as vehicle control for all compounds. An independent investigator dosed the mice in order to maintain blinding to treatment groups for the other investigators who performed the behavioral testing.
Leukocytes from cardiac blood were stained with Turk's solution according to manufacturer instructions, and manually counted on a hemocytometer by an experimenter who was blinded to treatment conditions.

NRF2/ARE = NRF2/ARE responsive luciferase reporter assay in HEK293 cells; assay type: cell-based; conditions: 16 h; for NRF2 activity in the presence of H2O2 or ONOO− compared to media control: 10 μM H2O2 or 10 μM ONOO−, 0-100 μM compound; for NRF2 activity relative to MMF: 0-100 μM
Description: as §1
After 16 h of incubation with examples of compounds described in the invention and ROS/RNS, cells were washed gently with 500 μL PBS (Sigma-Aldrich) and then incubated in 40 μL passive lysis buffer (Promega, Madison, USA) at room temperature. After 20 mins, 30 μL was transferred from each well to a 96-well clear-bottom, white-wall plate (Corning). Luciferase substrate (Signosis; 150 μL) was added to each well and gently mixed. Luminesence was immediately read on a Synergy HTX multi-mode microplate reader (BioTek, Winooski, USA).
Differences between in vitro concentration-response relationships were determined by comparing the slopes of fitted functions for shared parameters. Linear models were selected as the pharmacologically-relevant concentrations tested were within the linear range of the concentration-response functions. Mechanical allodynia was analyzed as the interpolated 50% thresholds (absolute threshold). One-way ANOVA was used to confirm that there were no baseline differences in absolute thresholds or dynamic scores between treatment groups. Differences between treatment groups for behavior were determined using repeated measures two-way ANOVA, followed by Tukey's or Sidaks post hoc tests. Biochemical data were analyzed by one- or two-way ANOVA, followed by Tukey's post hoc tests. Results are expressed as mean±standard deviation (SD). P<0.05 was considered statistically significant.

[5] = measured, Arch Dermatol Res. 2010, 302(7), 531-8; cited from earlier work

SMILES	tactile allodynia [1]	dynamic allodynia [2]	spontaneous pain: preference for the retigabine-paired light chamber [3]	NRF2 activity in the presence of H2O2 or ONOO− compared to media control (NRF2/ARE)	NRF2 activity relative to MMF (NRF2/ARE)	other results
COC(=O)/C=C/C(=O)C(=O)O [Example J, (3E)-5-methoxy-2,5-dioxopent-3-enoic acid]	reversed	reversed				
COC(=O)/C=C/C(=O)C(=O)OC [Example A, 1,5-dimethyl (2E)-4-oxopent-2-enedioate]	reversed	reversed	did not develop a preference for the retigabine-paired light chamber	increased NRF2 activity in the presence of H2O2 or ONOO^−		efficacy on tactile and dynamic allodynia relative to diroximel fumarate ([1]; 350 μmol/kg oral each, 3 days, both measures): greater efficacy than diroximel fumarate; toxicity in the concentration range tested ([4]; 0-100 μM): no toxicity in the concentration range tested; absolute leukocyte count (leukocytes): did not cause a decline in absolute leukocyte count
COC(=O)/C=C/C(=O)C(=O)NCc1ccccc1 [Example C, methyl (2E)-4-(benzylcarbamoyl)-4-oxobut-2-enoate]				did not selectively increase NRF2 activity	activated NRF2 to a greater extent than MMF	cytotoxic concentration [4]: above 50 μM
COC(=O)/C=C/C(=O)O [MMF, monomethyl fumarate]						pKa [5]: 3.63
COC(=O)/C=C/C(=O)C(=O)c1ccccc1 [Example D, methyl (2E)-4,5-dioxo-5-phenylpent-2-enoate]				increased NRF2 activity in the presence of H2O2 or ONOO^−	at lower levels than MMF	
COC(=O)/C=C/C(=O)OCCN1C(=O)CCC1=O [diroximel fumarate, reference compound]			did not develop a preference for the retigabine-paired light chamber			
